From PubChem BioAssay (NCI)
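Following 48 hours of exposure in 96-well plates, responses at five concentrations were used to interpolate endpoints linearly. Abbreviation: GI50, concentration required for 50% inhibition of growth. TGI: total growth inhibition.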

What was measured:
Experiment in all cases: inhibition of tumour cell growth, NCI panel, 48 h
[1] = tested on: OVCAR-5 ovarian
[2] = tested on: NCI-H522 lung
[3] = tested on: U251 CNS
[4] = tested on: IGROV1 ovarian
[5] = tested on: SF-268 CNS
[6] = tested on: M14 melanoma
[7] = tested on: MOLT-4 leukemia
[8] = tested on: K-562 leukemia
[9] = tested on: T-47D breast
[10] = tested on: COLO 205 colon
[11] = tested on: MDA-MB-231 breast
[12] = tested on: TK-10 renal
[13] = tested on: SF-539 CNS
[14] = tested on: HCT-116 colon
[15] = tested on: UACC-62 melanoma
[16] = tested on: RPMI-8226 leukemia
[17] = tested on: HCC-2998 colon
[18] = tested on: UO-31 renal
[19] = tested on: SK-MEL-28 melanoma
[20] = tested on: OVCAR-4 ovarian
[21] = tested on: 786-0 renal
[22] = tested on: SF-295 CNS
[23] = tested on: OVCAR-3 ovarian
[24] = tested on: SW-620 colon
[25] = tested on: OVCAR-8 ovarian
[26] = tested on: MCF7 breast
[27] = tested on: HL-60(TB) leukemia
[28] = tested on: BT-549 breast
[29] = tested on: SN12C renal
[30] = tested on: CCRF-CEM leukemia
[31] = tested on: SK-MEL-2 melanoma
[32] = tested on: RXF 393 renal
[33] = tested on: UACC-257 melanoma
[34] = tested on: NCI-H460 lung
[35] = tested on: SK-OV-3 ovarian
[36] = tested on: ACHN renal
[37] = tested on: KM12 colon
[38] = tested on: NCI-H226 lung
[39] = tested on: HOP-62 NSCLC
[40] = tested on: MALME-3M melanoma
[41] = tested on: CAKI-1 renal
[42] = tested on: NCI-H23 lung
[43] = tested on: A549 NSCLC
[44] = tested on: HS 578T breast
[45] = tested on: HT29 colon
[46] = tested on: SNB-75 CNS
[47] = tested on: MDA-MB-435
[48] = tested on: PC-3 prostate
[49] = tested on: SNB-19 CNS
[50] = tested on: A498 renal
[51] = tested on: EKVX NSCLC
[52] = tested on: DU-145 prostate
[53] = tested on: HCT-15 colon
[54] = tested on: SK-MEL-5 melanoma
[55] = tested on: MDA-MB-468 breast
[56] = tested on: NCI/ADR-RES ovarian
[57] = tested on: LOX IMVI melanoma
[58] = tested on: SR leukemia
[59] = tested on: HOP-92 NSCLC

Q: `O=C1NC(=NC23CC4CC(CC(C4)C2)C3)N/C1=C\c1ccc2ncccc2n1` was tested. Which GI50 [1] did it give?
A: 743 nM

Q: And the TGI [1]?
A: 5430 nM

Q: And the GI50 [2]?
A: 194 nM

Q: What about the TGI [2] of the same compound?
A: 1130 nM

Q: And the GI50 [3]?
A: 555 nM

Q: What about the TGI [3] of the same compound?
A: 11300 nM

Q: What about the GI50 [4] of the same compound?
A: 257 nM

Q: And the TGI [4]?
A: 1410 nM

Q: And the GI50 [5]?
A: 608 nM

Q: And the TGI [5]?
A: 5630 nM

Q: What about the GI50 [6] of the same compound?
A: 352 nM

Q: And the TGI [6]?
A: 2930 nM

Q: And the GI50 [7]?
A: 338 nM

Q: What about the TGI [7] of the same compound?
A: 2020 nM

Q: And the GI50 [8]?
A: 546 nM

Q: What about the TGI [8] of the same compound?
A: > 33600 nM

Q: What about the GI50 [9] of the same compound?
A: 238 nM

Q: And the TGI [9]?
A: 5380 nM

Q: And the GI50 [10]?
A: 319 nM

Q: And the TGI [10]?
A: 2940 nM

Q: And the GI50 [11]?
A: 557 nM

Q: And the TGI [11]?
A: 4820 nM

Q: What about the GI50 [12] of the same compound?
A: 328 nM

Q: What about the TGI [12] of the same compound?
A: 6570 nM

Q: And the GI50 [13]?
A: 128 nM

Q: And the TGI [13]?
A: 1110 nM

Q: What about the GI50 [14] of the same compound?
A: 250 nM

Q: What about the TGI [14] of the same compound?
A: 3720 nM

Q: What about the GI50 [15] of the same compound?
A: 226 nM

Q: What about the TGI [15] of the same compound?
A: 739 nM

Q: What about the GI50 [16] of the same compound?
A: 316 nM

Q: What about the TGI [16] of the same compound?
A: 1500 nM

Q: What about the GI50 [17] of the same compound?
A: 491 nM

Q: And the TGI [17]?
A: 4450 nM

Q: What about the GI50 [18] of the same compound?
A: 233 nM

Q: And the TGI [18]?
A: 1970 nM

Q: What about the GI50 [19] of the same compound?
A: 453 nM

Q: And the TGI [19]?
A: 2910 nM

Q: What about the GI50 [20] of the same compound?
A: 451 nM

Q: What about the TGI [20] of the same compound?
A: 3090 nM

Q: And the GI50 [21]?
A: 371 nM

Q: What about the TGI [21] of the same compound?
A: 2350 nM

Q: And the GI50 [22]?
A: 251 nM

Q: What about the TGI [22] of the same compound?
A: 4590 nM

Q: And the GI50 [23]?
A: 279 nM

Q: And the TGI [23]?
A: 1590 nM

Q: And the GI50 [24]?
A: 425 nM

Q: And the TGI [24]?
A: 6420 nM

Q: And the GI50 [25]?
A: 632 nM

Q: What about the TGI [25] of the same compound?
A: 5730 nM

Q: What about the GI50 [26] of the same compound?
A: 367 nM

Q: What about the TGI [26] of the same compound?
A: 5840 nM

Q: What about the GI50 [27] of the same compound?
A: 565 nM

Q: What about the TGI [27] of the same compound?
A: 3670 nM

Q: And the GI50 [28]?
A: 163 nM

Q: And the TGI [28]?
A: 687 nM

Q: And the GI50 [29]?
A: 350 nM

Q: And the TGI [29]?
A: 4570 nM

Q: What about the GI50 [30] of the same compound?
A: 299 nM

Q: What about the TGI [30] of the same compound?
A: 3030 nM

Q: And the GI50 [31]?
A: 202 nM

Q: What about the TGI [31] of the same compound?
A: 545 nM

Q: What about the GI50 [32] of the same compound?
A: 239 nM

Q: And the TGI [32]?
A: 995 nM

Q: What about the GI50 [33] of the same compound?
A: 652 nM

Q: And the TGI [33]?
A: 5820 nM

Q: And the GI50 [34]?
A: 510 nM

Q: What about the TGI [34] of the same compound?
A: 5280 nM

Q: And the GI50 [35]?
A: 245 nM

Q: And the TGI [35]?
A: 1400 nM

Q: What about the GI50 [36] of the same compound?
A: 305 nM

Q: What about the TGI [36] of the same compound?
A: 1900 nM

Q: What about the GI50 [37] of the same compound?
A: 683 nM

Q: What about the TGI [37] of the same compound?
A: 9840 nM

Q: What about the GI50 [38] of the same compound?
A: 597 nM

Q: And the TGI [38]?
A: 5970 nM

Q: And the GI50 [39]?
A: 514 nM

Q: And the TGI [39]?
A: 4540 nM

Q: And the GI50 [40]?
A: 147 nM

Q: What about the TGI [40] of the same compound?
A: 897 nM

Q: And the GI50 [41]?
A: 234 nM

Q: And the TGI [41]?
A: 1200 nM

Q: And the GI50 [42]?
A: 283 nM

Q: And the TGI [42]?
A: 1080 nM

Q: What about the GI50 [43] of the same compound?
A: 398 nM

Q: What about the TGI [43] of the same compound?
A: 5120 nM

Q: And the GI50 [44]?
A: 222 nM

Q: What about the TGI [44] of the same compound?
A: 1230 nM

Q: And the GI50 [45]?
A: 833 nM

Q: And the TGI [45]?
A: 3680 nM

Q: And the GI50 [46]?
A: 91.3 nM

Q: And the TGI [46]?
A: 755 nM

Q: What about the GI50 [47] of the same compound?
A: 537 nM

Q: What about the TGI [47] of the same compound?
A: 5140 nM

Q: What about the GI50 [48] of the same compound?
A: 334 nM

Q: What about the TGI [48] of the same compound?
A: 6230 nM

Q: And the GI50 [49]?
A: 261 nM

Q: And the TGI [49]?
A: 4210 nM

Q: And the GI50 [50]?
A: 175 nM

Q: And the TGI [50]?
A: 902 nM

Q: And the GI50 [51]?
A: 321 nM

Q: What about the TGI [51] of the same compound?
A: 2810 nM

Q: What about the GI50 [52] of the same compound?
A: 462 nM

Q: And the TGI [52]?
A: 7590 nM

Q: And the GI50 [53]?
A: 389 nM

Q: What about the TGI [53] of the same compound?
A: 6880 nM

Q: And the GI50 [54]?
A: 425 nM

Q: What about the TGI [54] of the same compound?
A: 1850 nM

Q: And the GI50 [55]?
A: 201 nM

Q: And the TGI [55]?
A: 781 nM

Q: And the GI50 [56]?
A: 1820 nM

Q: What about the TGI [56] of the same compound?
A: 7000 nM

Q: And the GI50 [57]?
A: 416 nM

Q: And the TGI [57]?
A: 4780 nM

Q: And the GI50 [58]?
A: 224 nM

Q: And the TGI [58]?
A: 779 nM

Q: What about the GI50 [59] of the same compound?
A: 222 nM

Q: And the TGI [59]?
A: 1760 nM
